# Assay results reported in ChEMBL document CHEMBL1201862, “PubChem BioAssay data set” (2004).
#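 Briefly, cells in 96-well plates were exposed to five compound concentrations for 48 h, and endpoints were estimated by linear interpolation. GI50 marks 50% less growth.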 Calls of active or inactive are those of the source. Rule as the data show it: active = GI50 up to about 1.1 µM and inactive = higher.
# What was measured:
# Assay in all cases: NCI anticancer screen, dose series, 48 h
# COLO 205 = tested on: COLO 205
# SF-295 = tested on: SF-295
# RPMI-8226 = tested on: RPMI-8226
# EKVX = tested on: EKVX
# UO-31 = tested on: UO-31
# CAKI-1 = tested on: CAKI-1
# 786-0 = tested on: 786-0
# NCI/ADR-RES = tested on: NCI/ADR-RES
# MCF7 = tested on: MCF7
# SN12C = tested on: SN12C
# SR = tested on: SR
# UACC-62 = tested on: UACC-62
# OVCAR-8 = tested on: OVCAR-8
# A549 = tested on: A549
# SK-MEL-28 = tested on: SK-MEL-28
# ACHN = tested on: ACHN
# MDA-MB-231 = tested on: MDA-MB-231
# OVCAR-4 = tested on: OVCAR-4
# HCC 2998 = tested on: HCC 2998
Compound,GI50 (COLO 205),GI50 (SF-295),GI50 (RPMI-8226),GI50 (EKVX),GI50 (UO-31),GI50 (CAKI-1),GI50 (786-0),GI50 (NCI/ADR-RES),GI50 (MCF7),GI50 (SN12C),GI50 (SR),GI50 (UACC-62),GI50 (OVCAR-8),GI50 (A549),GI50 (SK-MEL-28),GI50 (ACHN),GI50 (MDA-MB-231),GI50 (OVCAR-4),GI50 (HCC 2998)
O=C(Nc1cccc([N+](=O)[O-])c1)c1nnn(-c2cccc([N+](=O)[O-])c2)c1O,> 100 µM (inactive),> 100 µM (inactive),> 100 µM (inactive),> 100 µM (inactive),67.5 µM (inactive),> 100 µM (inactive),> 100 µM (inactive),> 100 µM (inactive),> 100 µM (inactive),> 100 µM (inactive),> 100 µM (inactive),> 100 µM (inactive),> 100 µM (inactive),> 100 µM (inactive),> 100 µM (inactive),> 100 µM (inactive),> 100 µM (inactive),,
O=C(O)CNCP(=O)(O)O [GLYPHOSATE],> 100 µM (inactive),> 100 µM (inactive),> 100 µM (inactive),> 100 µM (inactive),,> 100 µM (inactive),> 100 µM (inactive),> 100 µM (inactive),> 100 µM (inactive),> 100 µM (inactive),> 100 µM (inactive),> 100 µM (inactive),> 100 µM (inactive),> 100 µM (inactive),> 100 µM (inactive),> 100 µM (inactive),> 100 µM (inactive),> 100 µM (inactive),
CCCCCC(=O)N[C@@H](c1ccccc1)C(O)C(=O)OC1C[C@@]2(O)C(OC(=O)c3ccccc3)C3[C@](C)(C(=O)[C@H](O)C(=C1C)C2(C)C)C(OC1OCC(O)C(O)C1O)C[C@H]1OC[C@@]31OC(C)=O (stereo not given in full),0.665 µM (active),21.2 µM (inactive),0.486 µM (active),> 64.7 µM (inactive),> 75.9 µM (inactive),,4.93 µM (inactive),> 100 µM (inactive),1.02 µM (active),3.54 µM (inactive),2.41 µM (inactive),3.57 µM (inactive),6.35 µM (inactive),7.24 µM (inactive),2.7 µM (inactive),> 89.1 µM (inactive),67.6 µM (inactive),> 100 µM (inactive),1.6 µM (inactive)
COC(=O)C1=NN2c3ccccc3CN([C@@H](C)c3ccccc3)C(=O)[C@H]2[C@@H]1C,18.1 µM (inactive),35 µM (inactive),,27.7 µM (inactive),56 µM (inactive),33.7 µM (inactive),57.7 µM (inactive),26.1 µM (inactive),36.3 µM (inactive),70.6 µM (inactive),25.5 µM (inactive),40.6 µM (inactive),34.7 µM (inactive),29.4 µM (inactive),49.2 µM (inactive),39 µM (inactive),83 µM (inactive),28.9 µM (inactive),24.7 µM (inactive)
O=C(Cc1ccccc1)c1ccc2[nH]c(=O)oc2c1,66.2 µM (inactive),38.2 µM (inactive),9.23 µM (inactive),12.5 µM (inactive),,59.6 µM (inactive),87.3 µM (inactive),18.4 µM (inactive),43.5 µM (inactive),> 100 µM (inactive),38.3 µM (inactive),58.5 µM (inactive),23.2 µM (inactive),,28.6 µM (inactive),41.4 µM (inactive),36.1 µM (inactive),,
CCOC(=O)N/N=C(\Cc1ccccc1)OCC,> 100 µM (inactive),> 100 µM (inactive),> 100 µM (inactive),> 100 µM (inactive),> 100 µM (inactive),,> 100 µM (inactive),> 100 µM (inactive),> 100 µM (inactive),> 100 µM (inactive),> 100 µM (inactive),> 100 µM (inactive),> 100 µM (inactive),> 100 µM (inactive),,> 100 µM (inactive),> 100 µM (inactive),> 100 µM (inactive),> 100 µM (inactive)
c1ccc2c(c1)/C(=N\NC1=NCCN1)c1nc3ccccc3nc1-2,2.17 µM (inactive),2.45 µM (inactive),1 µM (active),12.9 µM (inactive),,,3.91 µM (inactive),5.85 µM (inactive),3.32 µM (inactive),8.51 µM (inactive),3.98 µM (inactive),2.49 µM (inactive),1.35 µM (inactive),3.86 µM (inactive),13.5 µM (inactive),3.21 µM (inactive),10.5 µM (inactive),17.6 µM (inactive),4.91 µM (inactive)
N#Cc1ccc(Oc2nc3ccc(C(F)(F)F)cc3nc2-c2ccccc2)cc1,21.5 µM (inactive),24.8 µM (inactive),,14.3 µM (inactive),17.2 µM (inactive),22.6 µM (inactive),17.1 µM (inactive),16.9 µM (inactive),20.4 µM (inactive),20.6 µM (inactive),2.77 µM (inactive),32.6 µM (inactive),14.9 µM (inactive),16.7 µM (inactive),16.6 µM (inactive),15.1 µM (inactive),14.5 µM (inactive),16.2 µM (inactive),17 µM (inactive)
COC1CC(C)(N)C(O)C(C)O1 (stereo not given),> 100 µM (inactive),> 100 µM (inactive),> 100 µM (inactive),> 100 µM (inactive),> 100 µM (inactive),> 100 µM (inactive),> 100 µM (inactive),> 100 µM (inactive),> 100 µM (inactive),> 100 µM (inactive),> 100 µM (inactive),> 100 µM (inactive),> 100 µM (inactive),> 100 µM (inactive),> 100 µM (inactive),> 100 µM (inactive),> 100 µM (inactive),,> 100 µM (inactive)
COc1ccc2c(c1)C1OCCNC1CC2 (stereo not given),> 100 µM (inactive),> 100 µM (inactive),> 100 µM (inactive),> 100 µM (inactive),> 100 µM (inactive),> 100 µM (inactive),> 100 µM (inactive),> 100 µM (inactive),> 100 µM (inactive),> 100 µM (inactive),> 100 µM (inactive),> 100 µM (inactive),> 100 µM (inactive),> 100 µM (inactive),> 100 µM (inactive),> 100 µM (inactive),> 100 µM (inactive),,
NS(=O)(=O)c1cc(Br)c(/N=N\c2ccc(O)c3ncccc23)c(Br)c1,> 100 µM (inactive),42.6 µM (inactive),7.26 µM (inactive),32.3 µM (inactive),21.3 µM (inactive),37.9 µM (inactive),23.6 µM (inactive),13.2 µM (inactive),11.5 µM (inactive),22.3 µM (inactive),9.46 µM (inactive),21.8 µM (inactive),35.2 µM (inactive),18.5 µM (inactive),27.4 µM (inactive),4.34 µM (inactive),51.1 µM (inactive),43.6 µM (inactive),
CC(=O)Oc1cc(OC(C)=O)c2c(C)cc(=O)oc2c1,> 100 µM (inactive),> 100 µM (inactive),> 100 µM (inactive),> 100 µM (inactive),67.3 µM (inactive),,> 100 µM (inactive),> 100 µM (inactive),76.2 µM (inactive),> 100 µM (inactive),> 100 µM (inactive),> 100 µM (inactive),> 100 µM (inactive),> 100 µM (inactive),> 100 µM (inactive),> 100 µM (inactive),> 100 µM (inactive),> 100 µM (inactive),
CC(=O)O[C@H]1CC[C@@]2(C)C(=CC[C@@H]3[C@@H]2CC[C@]2(C)c4c(C)n[nH]c4C[C@@H]32)C1,14.7 µM (inactive),20.4 µM (inactive),,17.9 µM (inactive),17.7 µM (inactive),16.8 µM (inactive),17.4 µM (inactive),26.1 µM (inactive),11.5 µM (inactive),19.4 µM (inactive),22.3 µM (inactive),12 µM (inactive),31 µM (inactive),14.2 µM (inactive),20.7 µM (inactive),17.9 µM (inactive),21.1 µM (inactive),15.7 µM (inactive),18.5 µM (inactive)
OCC1OC(NCCNCCNC2OC(CO)C(O)C(O)C2O)C(O)C(O)C1O (stereo not given),> 100 µM (inactive),> 100 µM (inactive),> 100 µM (inactive),> 100 µM (inactive),> 100 µM (inactive),,> 100 µM (inactive),> 100 µM (inactive),> 100 µM (inactive),> 100 µM (inactive),> 100 µM (inactive),> 100 µM (inactive),> 100 µM (inactive),> 100 µM (inactive),> 100 µM (inactive),> 100 µM (inactive),> 100 µM (inactive),,> 100 µM (inactive)
Cn1/c(=N\N=C2\C=C3CCCCC3(C)CC2)sc2ccccc21 (stereo not given),> 100 µM (inactive),> 100 µM (inactive),,> 100 µM (inactive),> 100 µM (inactive),> 100 µM (inactive),> 100 µM (inactive),> 100 µM (inactive),> 100 µM (inactive),> 100 µM (inactive),> 100 µM (inactive),> 100 µM (inactive),> 100 µM (inactive),> 100 µM (inactive),> 100 µM (inactive),> 100 µM (inactive),71.8 µM (inactive),> 100 µM (inactive),> 100 µM (inactive)
